From patent US4372953A, “Tetrazole derivatives, and anti-ulcer composition containing the same” (Otsuka Pharmaceutical Company, Limited, priority 1980, dated 1983) come the findings set out here.

What all share (type): in vivo, male Wistar rats
The subject of one assay is gastric juice secretion. Description: Shay rat pylorus ligation method (gastric juice secretion-inhibiting activity). The note with it: 100 mg/kg, duodenal route, 4 hours after ligation; for inhibition in vivo at 100 mg/kg: Rattus norvegicus, 4 h. How it is done: The pharmacological activities of the compounds (1) were tested by a Shay rat pylorus ligation method (cf. H. Shay et al: Gastroenterol., Vol. 5, page 43, 1945) which is the most popular method for testing of gastric juice secretion-inhibiting activity. The test was carried out by using male Wistar rats, weighing about 170 g and fasting for 24 hours.
Test compounds were administered 30 minutes before the pylorus ligation in a dose of 100 mg/kg in subcutaneous route in case of test compounds 37, 38, 50, 51 and 52, in a dose of 200 mg/kg in subcutaneous route in case of test compounds 105 and 106 and in dose of 100 mg/kg in duodenal route in case of other test compounds, and the volume, total acidity and pepsin activity of the gastric juice were measured 4 hours after the ligation. As a control, a saline solution was administered instead of the test compound. The inhibitory ratio (%) of the test compounds were calculated when the inhibitory activities of the control were counted as zero (0).
(§1) In the table, the inhibitory ratio (%) was evaluated as follows: […]

The subject of a further assay is stress ulcer. Description: Stress ulcer (restraint and water immersion). The note with it: Rattus norvegicus, po, 7 h, read-out: Inhibitory ratio of stress ulcer; for inhibition in vivo at 300 mg/kg: 0.5% CMC suspension; for inhibition in vivo: concentration of 1×10^-3 mole. As for the experimental part: After male Wistar rats weighing about 170 g was fasted for 24 hours, the rats were restrained in a stress cage and dipped in water bath at 23° C. till chest of the animals. After 7 hours, the rats were killed and the stomach was isolated. Into the isolated stomach 10% formalin (8 ml) was poured and settled. The stomach was cut open at the greater curvature, and the length of each ulcer on the membrane was measured. Sum of the length of all ulcers was shown as ulcer index (UI). The test compound was orally administered to the rats before restraint in a stress cage in a dose of 300 mg/kg in the form of 0.5% CMC suspension in case of test compounds 3, 4, 6, 15 and 27 and in a concentration of 1×10^-3 mole in case of other test compounds. As a control, only the solvent (CMC solution) was administered likewise. The inhibitory ratio (%) of stress ulcer of the test compounds was calculated by the following equation: [formula]
as §1

For assay [1], the system named is indomethacin-induced ulcer. Description: Indomethacin-induced ulcer. To be noted: Rattus norvegicus, 5 h, oral, 30 minutes before indomethacin 20 mg/kg s.c., read-out: Inhibitory ratio of indomethacin-induced ulcer. As for the experimental part: After male Wistar rats weighing about 160 g was fasted for 24 hours, indomethacin was subcutaneously administered to the rats in a dose of 20 mg/kg in the form of a suspension in a mixture of 0.5% CMC and a small amount of Tween 80 (i.e. polyoxyethylene sorbitan monooleate). After 5 hours, the rats were killed and the stomach was isolated. Into the isolated stomach 10% formalin (8 ml) was poured and settled. The stomach was cut open at the greater curvature, and the length of each ulcer on the membrane was measured, based on which results the inhibitory ratio of the indomethacin-induced ulcer of the test compounds was calculated in the same manner as in Pharmacological Test 2. The test compound was orally administered to the rats in a dose of 100 mg/kg in the form of 0.5% CMC suspension 30 minutes before the administration of indomethacin.
as §1

Where [2] appears, read: read-out: Inhibitory ratio, volume of gastric juice.
The mark [3] stands for this setting: read-out: Inhibitory ratio, pepsin activity.
Setting [4] is: read-out: Inhibitory ratio, total acidity.

Like-named read-outs stand apart in the source and are kept apart here.

In the case of `Br.CNC(=N)SCCCCSc1nnnn1C` [Test compound 27, 1-Methyl-2-[4-(1-methyl-1,2,3,4-tetrazol-5-yl)thiobutyl]isothiourea hydrobromide], the “Inhibitory ratio, volume of gastric juice” value (“Inhibitory ratio, volume” below) with gastric juice secretion was “+ +”. Further, in the assay with stress ulcer, the inhibition in vivo at 300 mg/kg was over 60%. For the compound `Cn1nnnc1SCCCSc1ccncc1` [Test compound 25, 1-Methyl-5-[3-(4-pyridyl)thiopropyl]thio-1,2,3,4-tetrazole], the inhibition in vivo with stress ulcer is over 60%. `Cn1nnnc1SCCCSCc1csc(N)n1` [Test compound 17, 1-Methyl-5-[3-(2-amino-4-thiazolyl)methylthiopropyl]thio-1,2,3,4-tetrazole]: in the assay with gastric juice secretion (setting [2]), the inhibition in vivo at 100 mg/kg lay in the range of 10 to 50%. For the same compound, the inhibition in vivo in the assay with stress ulcer was over 60%. Regarding `COc1ccc(CCNC(=O)CCCn2nnnc2C)cc1OC` [Test compound 114, N-[2-(3,4-Dimethoxyphenyl)ethyl]-4-(5-methyl-1,2,3,4-tetrazol-1-yl)butyramide], the inhibition in vivo in the assay on stress ulcer is 30 to 60%.

For `Cn1nnnc1SCCCSc1ccccn1` [compound 2], the inhibition in vivo at 100 mg/kg with gastric juice secretion (star-marked compounds, read-out: Inhibitory ratio, pepsin activity) was 30 to 60%; in the assay with gastric juice secretion (star-marked compounds, read-out: Inhibitory ratio, total acidity), over 60%; with gastric juice secretion (star-marked compounds, read-out: Inhibitory ratio, volume of gastric juice), over 60%. Moreover, the inhibition in vivo in the assay on stress ulcer was over 60%. Regarding `Cn1nnnc1SCCSc1ccccn1` [Test compound 31, 1-Methyl-5-[2-(2-pyridyl)thioethyl]thio-1,2,3,4-tetrazole], the inhibition in vivo at 100 mg/kg in the assay with gastric juice secretion (setting [2]) was over 50%. In the assay on stress ulcer, the inhibition in vivo is over 60%.

As to `Cc1nnnn1CCCC(=O)N1CCN(C)CC1` [Test compound 112, 5-Methyl-1-[3-(4-methyl-1-piperazinylcarbonyl)propyl]-1,2,3,4-tetrazole], the inhibition in vivo with stress ulcer is over 60%.

Consider `Cn1nnnc1SCCCC(=O)c1ccccc1` [Test compound 53, 1-Methyl-5-(3-benzoylpropyl)thio-1,2,3,4-tetrazole], for which, in assay [1], the inhibition in vivo at 100 mg/kg was over 60%.

Turning to `CCCCOc1ccc(C(=O)CCCSc2nnnn2C)cc1` [Test compound 79, 1-Methyl-5-[3-(4-butoxybenzoyl)propyl]thio-1,2,3,4-tetrazole], the inhibition in vivo in the assay with stress ulcer is over 60%. As for `Cc1nnnn1CCCC(=O)N1CCOCC1` [Test compound 117, 5-Methyl-1-(3-morpholinocarbonylpropyl)-1,2,3,4-tetrazole], the inhibition in vivo with stress ulcer was 30 to 60%.

Regarding `CC(CSc1ccccn1)CSc1nnnn1C` (centres unmarked) [Test compound 34, 1-Methyl-5-[2-methyl-3-(2-pyridyl)thiopropyl]thio-1,2,3,4-tetrazole], the inhibition in vivo at 100 mg/kg in the assay with gastric juice secretion (setting [2]) is over 50%. For the same compound, the inhibition in vivo in the assay with stress ulcer was over 60%. For `Cn1nnnc1SCCCC[S+]([O-])c1nnnn1C` (centres unmarked) [Test compound 46, 4-(1-Methyl-1,2,3,4-tetrazol-5-yl)thiobutyl 1-methyl-1,2,3,4-tetrazol-5-yl sulfoxide] the same measures were 10 to 50% and over 60%. Take `Cc1ncsc1C(=O)CCCSc1nnnn1C` [Test compound 80, 1-Methyl-5-[3-(4-methyl-5-thiazolyl)carbonylpropyl]thio-1,2,3,4-tetrazole]: the inhibition in vivo at 100 mg/kg in the assay on gastric juice secretion (setting [2]) is over 50%. Moreover, the inhibition in vivo in the assay on stress ulcer was over 60%.

On to `Cn1nnnc1SCCCCCCSc1nnnn1C` [Test compound 36, 1-Methyl-5-[6-(1-methyl-1,2,3,4-tetrazol-5-yl)thiohexyl]thio-1,2,3,4-tetrazole], for which, in the assay on gastric juice secretion, the “Inhibitory ratio, volume” value is reported as “+ +”. Besides, the inhibition in vivo in the assay on stress ulcer is over 60%. In the case of `CC(=O)N(C)CCCSc1nnnn1C` [Test compound 83, 1-Methyl-5-[3-(N-methyl-N-acetylamino)propyl]thio-1,2,3,4-tetrazole], in the assay on stress ulcer, the inhibition in vivo is over 60%. Regarding `Cn1nnnc1SCCCNC(=O)c1ccccc1` [Test compound 88, 1-Methyl-5-(3-benzoylaminopropyl)thio-1,2,3,4-tetrazole], the inhibition in vivo at 100 mg/kg in the assay on gastric juice secretion (setting [2]) is over 50%. Further, the inhibition in vivo in the assay on stress ulcer is over 60%.

As for `Cc1nnc(SCCCSc2nnnn2C)n1C` [Test compound 15, 1-Methyl-5-[3-(4,5-dimethyl-1,2,4-triazol-3-yl)thiopropyl]thio-1,2,3,4-tetrazole], the inhibition in vivo at 300 mg/kg with stress ulcer was over 60%.

For `Cn1nnnc1SCCCCCCSc1ccccn1` [Test compound 33, 1-Methyl-5-[6-(2-pyridyl)thiohexyl]thio-1,2,3,4-tetrazole], the inhibition in vivo at 100 mg/kg in the assay on gastric juice secretion (setting [2]) was in the range of 10 to 50%. In the assay on stress ulcer, the inhibition in vivo was over 60%.

Turning to `Cn1nnnc1SCCCC(=O)c1ccccn1` [Test compound 74, 1-Methyl-5-[3-(2-pyridyl)carbonylpropyl]thio-1,2,3,4-tetrazole], the inhibition in vivo at 100 mg/kg with gastric juice secretion (setting [2]) is over 50%. Besides, the inhibition in vivo in the assay on stress ulcer was over 60%. For the compound `Cc1nnc(SC(C)CCSc2nnnn2C)o1` (centres unmarked) [Test compound 42, 1-Methyl-5-[3-methyl-3-(5-methyl-1,3,4-oxadiazol-2-yl)thiopropyl]thio-1,2,3,4-tetrazole], in the assay on stress ulcer, the inhibition in vivo was over 60%. Turning to `Cn1nnnc1SCCCC(=O)c1ccco1` [Test compound 55, 1-Methyl-5-[3-(2-furoyl)propyl]thio-1,2,3,4-tetrazole], the inhibition in vivo at 100 mg/kg was 10 to 50% with gastric juice secretion (setting [3]), over 50% in the assay with gastric juice secretion (setting [4]) and over 50% in the assay on gastric juice secretion (setting [2]). The inhibition in vivo with stress ulcer was in the range of 30 to 60%.

Consider `Cn1nnnc1[S+]([O-])CCCCSc1ccccn1` (centres unmarked) [Test compound 45, 1-Methyl-1,2,3,4-tetrazol-5-yl 4-(2-pyridyl)thiobutyl sulfoxide], for which the inhibition in vivo with stress ulcer was over 60%. As for `Cn1nnnc1SCCCC(=O)Cc1ccccc1` [Test compound 57, 1-Methyl-5-(3-benzylcarbonylpropyl)thio-1,2,3,4-tetrazole], the inhibition in vivo at 100 mg/kg in the assay on gastric juice secretion (setting [3]) was 10 to 50%; with gastric juice secretion (setting [4]), 10 to 50%; with gastric juice secretion (setting [2]), over 50%. Also, the inhibition in vivo with stress ulcer is over 60%. Regarding `Cn1nnnc1SCCCSc1ccc([N+](=O)[O-])cn1` [Test compound 40, 1-Methyl-5-[3-(5-nitro-2-pyridyl)thiopropyl]thio-1,2,3,4-tetrazole], the inhibition in vivo with stress ulcer is over 60%.

On to `Cn1nnnc1SCCCSc1ccc2ccccc2n1` [Test compound 18, 1-Methyl-5-[3-(2-quinolyl)thiopropyl]thio-1,2,3,4-tetrazole], for which, in the assay with gastric juice secretion (setting [2]), the inhibition in vivo at 100 mg/kg was in the range of 10 to 50%. Same read-out and setting: for `CCN(CCCSc1nnnn1C)C(=O)C1CCCC1` [Test compound 92, 1-Methyl-5-[3-(N-ethyl-N-cyclopentylcarbonylamino)propyl]thio-1,2,3,4-tetrazole] the value was 10 to 50%. As to `CC(CC[S+]([O-])c1nnnn1C)Sc1nnnn1C` (centres unmarked) [Test compound 49, 1-Methyl-1,2,3,4-tetrazol-5-yl 3-methyl-3-(1-methyl-1,2,3,4-tetrazol-5-yl)thiopropyl sulfoxide], the inhibition in vivo with stress ulcer is over 60%.

In the case of `CC(CSc1nnnn1C)CSc1nnnn1C` [Test compound 9, 1-Methyl-5-[2-methyl-3-(1-methyl-1,2,3,4-tetrazol-5-yl)thiopropyl]thio-1,2,3,4-tetrazole], the inhibition in vivo at 100 mg/kg in assay [1] is over 60%.

Consider `Cn1nnnc1SCCSc1nnnn1C` [Test compound 35, 1-Methyl-5-[2-(1-methyl-1,2,3,4-tetrazol-5-yl)thioethyl]thio-1,2,3,4-tetrazole], for which, in the assay with gastric juice secretion, the “Inhibitory ratio, volume” value is reported as “+ +”. In the case of `Cc1ccnc(SCCCSc2nnnn2C)n1` [Test compound 13, 1-Methyl-5-[3-(4-methyl-2-pyrimidyl)thiopropyl]thio-1,2,3,4-tetrazole], the inhibition in vivo at 100 mg/kg in the assay on gastric juice secretion (setting [2]) was over 50%. On the same count and under the same terms, for `Cn1nnnc1SCc1ccccn1` [Test compound 98, 1-Methyl-5-(2-pyridylmethyl)thio-1,2,3,4-tetrazole] the value was over 50%.
